14 compounds from paper PMC6273473 (Molecules, 2016) can be followed below.

In general, inhibition refers to the share of the control response that was lost under treatment. One may read the IC50 as the midpoint of a concentration-inhibition curve. The term Papp A→B denotes how fast a substance crosses the layer from the apical side. A higher Papp A→B goes with fast passage. Broadly, the Papp B→A is the apparent permeability from the basolateral to the apical side of a cell layer.

Each structure is given as a SMILES string. Where “and” joins values, the source holds several entries; their conditions need not be identical. Equal entries are not always repeated. Entries after “also recorded” stand apart in the source; their conditions may differ. Structures can show the parent of a compound that is named as a salt. Where two headings read alike, the source gives them in different places.

Data set [1] has as its target T1, rMAO-A (Rattus norvegicus, UniProt P21396).
T1 construct: from tissue; host or cells: rat brain mitochondrial homogenate
T1 sequence (P21396 1-526): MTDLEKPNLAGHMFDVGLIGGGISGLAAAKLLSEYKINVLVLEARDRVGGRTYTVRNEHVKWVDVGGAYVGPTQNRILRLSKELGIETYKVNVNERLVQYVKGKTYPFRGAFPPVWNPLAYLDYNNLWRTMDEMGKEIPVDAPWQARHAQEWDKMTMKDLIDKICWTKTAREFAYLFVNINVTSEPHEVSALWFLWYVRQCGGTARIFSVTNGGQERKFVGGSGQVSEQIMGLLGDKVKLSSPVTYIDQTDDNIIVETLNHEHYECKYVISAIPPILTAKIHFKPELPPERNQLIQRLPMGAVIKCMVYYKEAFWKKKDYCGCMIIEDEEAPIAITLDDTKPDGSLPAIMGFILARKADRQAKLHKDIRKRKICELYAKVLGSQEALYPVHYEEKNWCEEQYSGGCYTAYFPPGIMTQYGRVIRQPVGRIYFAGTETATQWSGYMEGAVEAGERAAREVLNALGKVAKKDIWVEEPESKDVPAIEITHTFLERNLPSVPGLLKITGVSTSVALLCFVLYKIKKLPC
Description: rat MAO-A inhibition, kynuramine spectrophotometric assay. It counts as biochemical. The note with it: rat brain homogenates; for inhibition at 10 µM: read-out: MAO-A % inhibition at 10 µM.
Description: (§1) MAO inhibitory activities were measured on rat brain mitochondrial homogenates [21].
(§2) The rMAO inhibitory activity of compounds in Table 1 was assessed using a continuous spectrophotometric assay [28], monitoring the rate of oxidation of the nonselective nonfluorescent MAO substrate kynuramine to 4-hydroxyquinoline, as previously reported [21]. […] Finally, IC50 values were determined by nonlinear regression of MAO inhibition vs. -log of the concentration plots, using the program Origin, Version 6.0 (Microcal Software Inc., Northampton, MA, USA).

Data set [2] concerns the target T2, rMAO-B (Rattus norvegicus, UniProt P19643).
T2 construct: from tissue; host or cells: rat brain mitochondrial homogenate
T2 sequence (P19643 1-520): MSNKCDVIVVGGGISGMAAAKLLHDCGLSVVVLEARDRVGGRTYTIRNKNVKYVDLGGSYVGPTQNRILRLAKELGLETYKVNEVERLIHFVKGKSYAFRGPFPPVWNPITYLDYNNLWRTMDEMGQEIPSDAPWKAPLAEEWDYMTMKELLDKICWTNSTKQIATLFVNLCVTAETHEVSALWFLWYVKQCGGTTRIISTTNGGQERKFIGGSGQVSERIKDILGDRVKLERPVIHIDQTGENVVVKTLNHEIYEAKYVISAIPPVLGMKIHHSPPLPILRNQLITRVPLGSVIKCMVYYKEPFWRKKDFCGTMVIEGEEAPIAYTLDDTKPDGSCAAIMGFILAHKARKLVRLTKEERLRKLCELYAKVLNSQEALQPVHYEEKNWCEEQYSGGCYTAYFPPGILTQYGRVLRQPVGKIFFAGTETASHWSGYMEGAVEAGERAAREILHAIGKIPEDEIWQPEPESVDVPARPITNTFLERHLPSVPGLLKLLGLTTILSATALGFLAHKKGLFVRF
Description: rat MAO-B inhibition, kynuramine spectrophotometric assay. The format is biochemical. The conditions noted are these: for inhibition at 10 µM: read-out: MAO-B % inhibition at 10 µM.
Description: as §1, §2

Data set [3] concerns the target T3, electric eel AChE (eeAChE) (Electrophorus electricus, UniProt O42275).
T3 construct: purchased Sigma Aldrich, Milan, Italy
Nature of the data set: biochemical.

Data set [4] concerns the target T4, equine serum butyrylcholinesterase (esBChE) (Equus caballus, UniProt P81908).
T4 construct: BChE from equine serum (13 U/mg; Sigma); purchased Sigma; host or cells: equine serum
Description: BChE inhibition, Ellman's method. The format is biochemical. The conditions noted are these: read-out: BChE % inhibition at 10 µM. (In general: Ellman's reagent forms a yellow product with free thiols.)
Description: 2H-Chromen-2-ones 3a–m and 8 were evaluated as inhibitors of electric eel AChE (eeAChE), equine serum butyrylcholinesterase (esBChE) and rat MAOs (rMAO-A and rMAO-B). In vitro enzymatic assays on ChEs were accomplished through the well-known spectrophotometric Ellman’s method [20].

Data set [5] concerns SH-SY5Y cells. Description: Cytotoxicity, MTT assay. It counts as cell-based. The conditions noted are these: 24 h incubation, 0.1–50 µM. (In general: Tetrazolium assays rely on reduction of a dye to a coloured formazan, in cell work by metabolically active cells.)
Description: Human neuroblastoma cells SH-SY5Y were maintained at 37 °C in a humidified incubator containing 5% CO2 in DMEM nutrient (Lonza) supplemented with 10% heat inactivated FBS, 2 mM L-glutamine, 100 U/mL penicillin and 100 µg/mL streptomycin. Cells were dispensed into 96-well microtiter plates at a density of 10,000 cells/well. […] Then, the plates were incubated at 37 °C for 24 h. An amount of 10 µL of 0.5% w/v MTT was further added to each well, and the plates were incubated for an additional 3 h at 37 °C. Finally, the cells were lysed by the addition of 100 µL of DMSO/EtOH 1:1 (v/v) solution.
Untreated cells were used as the control.
Data set [6] concerns SH-SY5Y cells. Description: Neuroprotection against oxidative stress insults, MTT assay. It counts as cell-based, human.
Description: Therefore, a preliminary evaluation of the cytotoxicity and neuroprotective efficacy of this hit compound was undertaken in the human SH-SY5Y neuroblastoma cell line by following the 3-(4,5-dimethylthiazol-2-yl)-2,5-diphenyl-tetrazolium bromide (MTT) assay [22].
Human neuroblastoma SH-SY5Y cells were dispensed into 96-well microtiter plates at a density of 10,000 cells/well. […] The cell viability was determined by the MTT assay and analyzed as above described. Each compound was tested in triplicate, and the experiments were repeated three times. Statistical significance was assigned to p < 0.01 and calculated using a one-way analysis of variance (ANOVA) followed by the Bonferroni post hoc tests (GraphPad Prism vers. 5).
Results are expressed as the percentage of viable cells, and data represent the means ± SD (n = 3).
The subject of data set [7] is MDCKII-MDR1 cells.
The test system of data set [8] is P-gp (MDR1). Nature of the data set: in vitro. The conditions noted are these: dog, MDCK-MDR1, pH 7.4.
Where [9] appears, read: from electric eel, read-out: AChE IC50.
Where [10] appears, read: determined after 30 min pre-incubation.

T3 sequence (O42275 24-633): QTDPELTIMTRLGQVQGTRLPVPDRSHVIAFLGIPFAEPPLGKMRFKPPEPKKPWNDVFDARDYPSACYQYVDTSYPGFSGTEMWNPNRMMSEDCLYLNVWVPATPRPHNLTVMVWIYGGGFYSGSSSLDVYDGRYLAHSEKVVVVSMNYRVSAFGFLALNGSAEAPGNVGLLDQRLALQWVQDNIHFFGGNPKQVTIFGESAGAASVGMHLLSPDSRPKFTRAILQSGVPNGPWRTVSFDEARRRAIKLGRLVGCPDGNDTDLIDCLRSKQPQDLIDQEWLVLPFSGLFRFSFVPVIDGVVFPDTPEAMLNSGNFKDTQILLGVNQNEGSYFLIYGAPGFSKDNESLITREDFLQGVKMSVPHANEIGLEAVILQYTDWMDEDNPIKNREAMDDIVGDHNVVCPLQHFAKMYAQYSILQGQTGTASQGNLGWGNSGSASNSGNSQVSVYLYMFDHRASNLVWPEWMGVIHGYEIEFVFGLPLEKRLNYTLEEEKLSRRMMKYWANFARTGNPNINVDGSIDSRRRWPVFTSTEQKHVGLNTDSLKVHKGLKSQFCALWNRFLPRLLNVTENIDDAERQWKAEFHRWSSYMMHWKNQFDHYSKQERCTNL
T4 sequence (P81908 whole entry): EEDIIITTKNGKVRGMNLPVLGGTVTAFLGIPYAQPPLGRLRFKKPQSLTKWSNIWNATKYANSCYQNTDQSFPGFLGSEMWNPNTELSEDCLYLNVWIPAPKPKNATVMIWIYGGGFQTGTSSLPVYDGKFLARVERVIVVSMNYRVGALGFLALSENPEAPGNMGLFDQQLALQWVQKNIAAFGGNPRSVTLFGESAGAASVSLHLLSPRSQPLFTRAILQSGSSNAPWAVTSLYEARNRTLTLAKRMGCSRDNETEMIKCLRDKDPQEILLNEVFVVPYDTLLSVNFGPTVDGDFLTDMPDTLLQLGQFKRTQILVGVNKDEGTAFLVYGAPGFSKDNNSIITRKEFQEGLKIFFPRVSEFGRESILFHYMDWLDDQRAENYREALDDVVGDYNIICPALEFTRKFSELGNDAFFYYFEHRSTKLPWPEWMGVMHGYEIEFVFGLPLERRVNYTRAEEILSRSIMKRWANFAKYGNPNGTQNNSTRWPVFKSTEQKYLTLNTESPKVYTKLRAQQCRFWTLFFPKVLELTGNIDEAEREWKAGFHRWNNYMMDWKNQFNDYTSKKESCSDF

`NC(=O)CNCc1cc2ccccc2oc1=O` [Compound 3a, N^2-[(2-oxo-2H-Chromen-3-yl)methyl]glycinamide]: the inhibition at 10 µM is under 5% in data set [1]; under 5% in data set [2] (rat brain homogenates); 6.2% in data set [4] (from equine serum, 10 µM). Moreover, in data set [3] (setting [9]), the IC50 is 12 ± 1 µM.
In the case of `CN(Cc1cccc(F)c1)Cc1cc2ccccc2oc1=O` [Compound 3b, 3-{[(3-Fluorobenzyl)(methyl)amino]methyl}-2H-chromen-2-one hydrochloride], the inhibition at 10 µM is under 5% in data set [1]; under 5% in data set [2] (rat brain homogenates); 15% in data set [4] (from equine serum, 10 µM). The compound further returned a 50% inhibitory concentration (IC50) in data set [3] (AChE IC50, from electric eel) of 6.8 ± 0.1 µM.
For the compound `C#CCN(C)Cc1cc2ccccc2oc1=O` [Compound 3c, 3-{[Methyl(prop-2-yn-1-yl)amino]methyl}-2H-chromen-2-one], the IC50 came out at 7 ± 1.4 µM in data set [1] (setting [10]); 0.377 ± 0.014 µM in data set [2] (rat brain homogenates, determined after 30 min pre-incubation, read-out: MAO-B IC50); 8.4 ± 0.5 µM in data set [3] (setting [9]). Also, the inhibition at 10 µM in data set [4] (from equine serum, 10 µM) is under 5%.
For `COc1ccc2cc(CN(C)Cc3cccc(F)c3)c(=O)oc2c1` [Compound 3d, 3-{[(3-Fluorobenzyl)(methyl)amino]methyl}-7-methoxy-2H-chromen-2-one], the inhibition at 10 µM was 6% in data set [1]; under 5% in data set [2] (rat brain homogenates); 8.5% in data set [4] (from equine serum, 10 µM). In data set [3] (setting [9]), the concentration for half-maximal inhibition (IC50) is 6.6 ± 0.1 µM.
`COc1ccc2cc(CN(C)Cc3cccc(C#N)c3)c(=O)oc2c1` [Compound 3e, 3-{[[(7-Methoxy-2-oxo-2H-chromen-3-yl)methyl](methyl)amino]methyl}benzonitrile]: the inhibition at 10 µM is 9.2% in data set [1]; under 5% in data set [2] (rat brain homogenates); under 5% in data set [4] (from equine serum, 10 µM). The IC50 in data set [3] (setting [9]) came out at 8.4 ± 0.3 µM.
For `C#CCN(C)Cc1cc2ccc(OC)cc2oc1=O` [Compound 3f, 7-Methoxy-3-{[methyl(prop-2-yn-1-yl)amino]methyl}-2H-chromen-2-one hydrochloride], in data set [3] (AChE IC50, from electric eel), half-maximal inhibition (IC50) was put at 14 ± 1 µM. For the same compound, the inhibition at 10 µM in data set [4] was determined as 13%.
For `COc1cc2cc(CN(C)Cc3cccc(Cl)c3)c(=O)oc2cc1OC` [Compound 3g, 3-{[(3-Chlorobenzyl)(methyl)amino]methyl}-6,7-dimethoxy-2H-chromen-2-one hydrochloride], the inhibition at 10 µM was 7% in data set [1]; under 5% in data set [2] (rat brain homogenates); 19% in data set [4] (from equine serum, 10 µM). Further, in data set [3] (AChE IC50, from electric eel), 4.4 ± 1.1 µM corresponded to half-maximal inhibition (IC50).
Turning to `C#CCN(C)Cc1cc2cc(OC)c(OC)cc2oc1=O.Cl` [Compound 3h, 6,7-Dimethoxy-3-{[methyl(prop-2-yn-1-yl)amino]methyl}-2H-chromen-2-one hydrochloride], the inhibition at 10 µM in data set [1] (setting [10]) is under 5%; in data set [4] (from equine serum, 10 µM), under 5%. Further, the IC50 was 0.0028 ± 0.0004 µM in data set [2]; 8.99 µM and 9 µM in data set [3] (AChE IC50, from electric eel). For the same compound, the “Cytotoxicity (viability of SH-SY5Y cells)” value in data set [5] is listed as “negligible cytotoxicity; also recorded: low cytotoxicity”. Moreover, the “Neuroprotection against oligomycin-A” value in data set [6] (0.1 µM compound, oligomycin-A 30 µM, 24 h co-incubation) is “moderate neuroprotection; also recorded: promising neuroprotective effect”. In data set [6] (0.1 µM compound, rotenone 75 µM, 24 h co-incubation), the Neuroprotection against rotenone entry is listed as “moderate neuroprotection; also recorded: promising neuroprotective effect”. In addition, in data set [6] (1 µM compound, 24 h co-incubation with H2O2 195 µM, oligomycin-A 30 µM or rotenone 75 µM), the “Neuroprotection (cell survival)” value is listed as “no increase of cell survival”. For the same compound, in data set [7], the P-gp substrate entry was “not likely to be a substrate for P-gp; also recorded: did not result in a glycoprotein-p (P-gp) substrate”. For the same compound, the Papp A→B at 120 min, 75 µM in data set [8] was found to be 22.7 ×10⁻⁶ cm/s. The apparent permeability from basolateral to apical (Papp B→A) at 120 min, 75 µM in data set [8] came out at 21.8 ×10⁻⁶ cm/s.
On to `CNCc1cc2cc(OC)c(OC)cc2oc1=O` [Compound 3i, 6,7-Dimethoxy-3-[(methylamino)methyl]-2H-chromen-2-one hydrochloride], for which the inhibition at 10 µM was under 5% in data set [1]; under 5% in data set [2] (rat brain homogenates); 10% in data set [4] (from equine serum, 10 µM). Also, the IC50 in data set [3] (AChE IC50, from electric eel) was 13 ± 1 µM.
On to `COc1cc2cc(CNCc3ccccc3)c(=O)oc2cc1OC` [Compound 3j, 3-[(Benzylamino)methyl]-6,7-dimethoxy-2H-chromen-2-one], for which the inhibition at 10 µM in data set [1] is under 5%; in data set [2] (rat brain homogenates), under 5%; in data set [4] (from equine serum, 10 µM), 27%. Further, the half-inhibitory concentration (IC50) in data set [3] (setting [9]) was 2.78 µM and 2.8 µM.
Take `COc1cc2cc(CNCc3ccc(C#N)cc3)c(=O)oc2cc1OC` [Compound 3k, 4-({[(6,7-Dimethoxy-2-oxo-2H-chromen-3-yl)methyl]amino}methyl)benzonitrile]: the inhibition at 10 µM in data set [1] was 20%; in data set [2] (rat brain homogenates), under 5%; in data set [4] (from equine serum, 10 µM) it was 13%. Moreover, in data set [3] (setting [9]), the concentration for half-maximal inhibition (IC50) came to 8.4 ± 1.1 µM.
As to `COc1cc2cc(CNCC(N)=O)c(=O)oc2cc1OC` [Compound 3l, N^2-[(6,7-Dimethoxy-2-oxo-2H-chromen-3-yl)methyl]glycinamide], the inhibition at 10 µM in data set [1] is under 5%; in data set [2] (rat brain homogenates), under 5%; in data set [4] (from equine serum, 10 µM), 10%. Moreover, the IC50 in data set [3] (setting [9]) was 8 ± 1.2 µM.
Take `CNC(=O)CNCc1cc2cc(OC)c(OC)cc2oc1=O` [Compound 3m, N^2-[(6,7-Dimethoxy-2-oxo-2H-chromen-3-yl)methyl]-N^1-methylglycinamide]: the inhibition at 10 µM is under 5% in data set [1]; under 5% in data set [2] (rat brain homogenates); 11% in data set [4] (from equine serum, 10 µM). In data set [3] (setting [9]), the IC50 worked out at 7.7 ± 0.4 µM.
As to `C#CCN(C)Cc1cc2cc(OC)c(O)cc2oc1=O` [Compound 8, 7-Hydroxy-6-methoxy-3-{[methyl(prop-2-yn-1-yl)amino]methyl}-2H-chromen-2-one], the inhibition at 10 µM in data set [1] (setting [10]) was 35%; in data set [2] (rat brain homogenates, determined after 30 min pre-incubation), 11%; in data set [4] (from equine serum, 10 µM), under 5%. Further, the half-inhibitory concentration (IC50) in data set [3] (setting [9]) was determined as 9.3 ± 0.4 µM.
